US5585273A (priority 1994, dated 1996)
Where a SMILES comes first, the peptide text is derived from it. [ ]: non-standard residue; d: D form. The star is where a group is joined. Sta = CC(C)C[C@H](N)[C@@H](O)CC(=O)O; Isovaleryl = CC(C)CC(=O)*

What was measured:
[1] = tested on: Candida albicans aspartic protease; settings: background statement; cited from earlier work
[2] = biological target: Candida albicans aspartic protease (Candida albicans, UniProt P0DJ06); settings: Part II
Method: (§1) In the second part, the enzymes are preincubated with their respective inhibitors and appropriate buffers for 15 mins. These are then added to the substrate and incubated at room temp for further 15 mins.
(§2) In both cases, the reaction mixture is centrifuged to remove solid phase conjugate. The supernatant (5 μl) is added to Hemoccult® slides and developed with 5 μl of hydrogen peroxide.

[3] = biological target: T1, Trypsin (serine protease) from bovine pancreas (Bos taurus, UniProt P00760); test: Inhibition of trypsin-mediated HRPO release (Experiment XV, Part 2); format: biochemical; settings: Part II
T1 construct: purchased U.S. Biochemicals; host or cells: bovine pancreas
Method: as §1, §2

[4] = biological target: T2, Papain (thiol protease) from papaya latex (Carica papaya, UniProt P00784); test: Inhibition of papain-mediated HRPO release (Experiment XV, Part 2); format: biochemical; settings: Part II
T2 construct: purchased Sigma Chemical Co; host or cells: papaya latex
Method: as §1, §2

[5] = tested on: [Sepharose-Hemoglobin-HRPO] (or the myoglobin equivalent) conjugate; settings: acetate buffer pH 4.0, 15 minutes at room temperature
Method: 40 mg (wet weight) [Sepharose-Hemoglobin-HRPO] (or the myoglobin equivalent) conjugate were suspended in 75 microliters acetate buffer, pH 4.0 and 25 microliters of test solution were added. The suspension was incubated at room temperature for 15 minutes and centrifuged to remove the solid phase conjugate. Five microliters of the supernatant were added to a guaiac slide, followed by five microliters of hydrogen peroxide solution.

[6] = tested on: [Sepharose-Casein-HRPO] (or the Kappa-Casein equivalent) conjugate; settings: acetate buffer pH 4.0, 15 minutes at room temperature
Method: 40 mg (wet weight) [Sepharose-Casein-HRPO] (or the Kappa-Casein equivalent) conjugate were suspended in 75 microliters acetate buffer, pH 4.0 and 25 microliters of test solution were added. The suspension was incubated at room temperature for 15 minutes and centrifuged to remove the solid phase conjugate. Five microliters of the supernatant were added to a guaiac slide, followed by five microliters of hydrogen peroxide solution.

[7] = tested on: [SIGMACELL® 20-KAPPA-CASEIN-HRPO] (HYDRAZIDE METHOD) or [SIGMACELL® 20-MYOGLOBIN/HEMOGLOBIN-HRPO] (ALDEHYDE METHOD); settings: acetate buffer pH 4.0, 15 minutes at room temperature
Method: (§3) 40 mg (wet weight) [Sigmacell® 20-Kappa-Casein-HRPO] conjugate were suspended in 75 microliters acetate buffer, pH 4.0 and 25 microliters of test solution were added. The suspension was incubated at room temperature for 15 minutes and centrifuged to remove the solid phase conjugate. Five microliters of the supernatant were added to a guaiac slide, followed by five microliters of hydrogen peroxide solution.

[8] = tested on: [Sigmacell® 20-Kappa-Casein-HRPO] conjugate; settings: acetate buffer pH 4.0, 15 minutes at room temperature
Method: as §3

[9] = tested on: [Chitin-Kappa-Casein-HRPO] conjugate; settings: acetate buffer pH 4.0, 15 minutes at room temperature
Method: 40 mg (wet weight) [Chitin-Kappa-Casein-HRPO] conjugate were suspended in 75 microliters acetate buffer, pH 4.0 and 25 microliters of test solution were added. The suspension was incubated at room temperature for 15 minutes and centfifuged to remove the solid phase conjugate. Five μl of the supernatant were added to a guaiac slide, followed by five microliters of hydrogen peroxide solution.

[10] = tested on: [Sigmacell® 20-Hemoglobin-HRPO] (or the myoglobin equivalent) conjugate; settings: acetate buffer pH 4.0, 15 minutes at room temperature
Method: 40 mg (wet weight) [Sigmacell® 20-Hemoglobin-HRPO] (or the myoglobin equivalent) conjugate were suspended in 75 microliters acetate buffer, pH 4.0 and 25 microliters of test solution were added. The suspension was incubated at room temperature for 15 minutes and centrifuged to remove the solid phase conjugate. Five microliters of the supernatant were added to a guaiac slide, followed by five microliters of hydrogen peroxide solution.

[11] = tested on: [POLYMERIC DIALDEHYDE-KAPPA-CASEIN-HRPO] conjugate; settings: acetate buffer pH 4.0, 15 minutes at room temperature
Method: The suspension was incubated at room temperature for 15 minutes and centrifuged to remove the solid phase conjugate. Five microliters of the supernatant were added to a guaiac slide, followed by five microliters of hydrogen peroxide solution.

[12] = tested on: [Eupergit® C-Myoglobin-HRPO]; test: Activity of various proteases on Eupergit C-myoglobin-HRPO (Experiment XV); format: biochemical; settings: Part I
Method: This assay is set up in two parts. The first is to determine the activity of the different proteases on the substrate [Eupergit® C-Myoglobin-HRPO]. The enzymes and controls (enzymes boiled for 15 min) are incubated with 20 mg of substrate and buffers (see quantities in table below) for 15 minutes prior to assay.

Sequence of Candida albicans aspartic protease (Candida albicans, UniProt P0DJ06) (P0DJ06 57-398): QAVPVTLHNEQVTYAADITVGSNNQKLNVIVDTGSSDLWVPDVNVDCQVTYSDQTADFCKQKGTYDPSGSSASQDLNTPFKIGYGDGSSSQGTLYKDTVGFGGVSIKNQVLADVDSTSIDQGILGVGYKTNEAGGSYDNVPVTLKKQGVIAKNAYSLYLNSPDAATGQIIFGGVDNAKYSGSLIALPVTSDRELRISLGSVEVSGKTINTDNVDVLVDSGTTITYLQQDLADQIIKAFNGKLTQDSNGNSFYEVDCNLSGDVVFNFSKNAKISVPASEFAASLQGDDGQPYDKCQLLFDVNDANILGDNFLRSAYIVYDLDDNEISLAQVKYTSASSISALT

**Q.** With `CC(C)CC(=O)N[C@H](C(=O)N[C@H](C(=O)N[C@@H](CC(C)C)[C@@H](O)CC(=O)N[C@@H](C)C(=O)N[C@@H](CC(C)C)[C@@H](O)CC(=O)O)C(C)C)C(C)C` [Pepstatin, Pepstatin A] (Isovaleryl-VV[Sta]A[Sta]-OH) as the molecule, how does the “inhibition of Candida albicans aspartic protease” value [1] read?
**A.** strongly inhibited

**Q.** What about the “inhibition of color formation by aspartic protease” value [2] of the same molecule?
**A.** inhibits color formation

**Q.** Which “inhibition of color formation by trypsin” value [3] does the source give for `Cc1ccc(S(=O)(=O)NC(CCCCN)C(=O)CCl)cc1` (stereo not drawn) [TLCK, Tosyl lysine chloromethyl ketone] here?
**A.** inhibits color formation

**Q.** And the “inhibition of color formation by papain” value [4]?
**A.** inhibits color formation

**Q.** What does the source list for Pepsin?
**A.** blue color formation on guaiac impregnated sheet [5]: dark blue color; blue color formation on guaiac impregnated sheet [6]: dark blue color; blue color formation on guaiac impregnated sheet [7]: dark blue color; blue color formation on guaiac impregnated sheet [8]: dark blue color; blue color formation on guaiac impregnated sheet [9]: dark blue color; blue color formation on guaiac impregnated sheet [10]: dark blue color; blue color formation on guaiac impregnated sheet [11]: dark blue color

B1: Trypsin (boiled): trypsin boiled for 15 min (control) (protein, UniProt P00760 24-246, looked up)
Serine protease 1: IVGGYTCGANTVPYQVSLNSGYHFCGGSLINSQWVVSAAHCYKSGIQVRLGEDNINVVEGNEQFISASKSIVHPSYNSNTLNNDIMLIKLKSAASLNSRVASISLPTSCASAGTQCLISGWGNTKSSGTSYPDVLKCLKAPILSDSSCKSAYPGQITSNMFCAGYLEGGKDSCQGDSGGPVVCSGKLQGIVSWGSGCAQKNKPGVYTKVCNYVSWIKQTIASN
modifications: heat-denatured
**Q.** Which “blue color formation on guaiac slides” value ([12]; pH 7.4) does the source give for B1 here?
**A.** faintest color detectable

B2: Trypsin: Trypsin (serine protease) from bovine pancreas (2900 units/mg activity), 2 mg/ml (protein, UniProt P00760 24-246, looked up)
Serine protease 1: B1 Serine protease 1
**Q.** For B2, which “blue color formation on guaiac slides” value ([12]; pH 7.4) is on record?
**A.** strong blue color

B3: Papain (boiled): papain boiled for 15 min (control) (protein, UniProt P00784 134-345, looked up)
Papain: IPEYVDWRQKGAVTPVKNQGSCGSCWAFSAVVTIEGIIKIRTGNLNEYSEQELLDCDRRSYGCNGGYPWSALQLVAQYGIHYRNTYPYEGVQRYCRSREKGPYAAKTDGVRQVQPYNEGALLYSIANQPVSVVLEAAGKDFQLYRGGIFVGPCGNKVDHAVAAVGYGPNYILIKNSWGTGWGENGYIRIKRGTGNSYGVCGLYTSSFYPVKN
modifications: heat-denatured
**Q.** For B3, which “blue color formation on guaiac slides” value ([12]; pH 7.4) is on record?
**A.** faintest color detectable

B4: Papain: Papain (thiol protease) from papaya latex (12 units/mg activity), 2 mg/ml (protein, UniProt P00784 134-345, looked up)
Papain: B3 Papain
**Q.** With B4 as the molecule, how does the “blue color formation on guaiac slides” value ([12]; pH 7.0) read?
**A.** strong blue color
